Test results as given in paper PMC7698926 (International Journal of Molecular Sciences, 2020).
In brackets after ≈: the same amount, converted by molar mass. Several values for one entry are separate records, joined by “and”; a condition that tells them apart may be missing. Equal values may be shown once. Read-outs that look alike come from different tables or passages of the source. Where a SMILES comes first, the peptide text is derived from it.

What was measured:
[1] = test system: C. fangii, X. oryzae pv. oryzae, C. michiganensis, and R. solanacearum; type: physicochemical; conditions: heated 30 min at 4 °C, 50 °C, 80 °C and 100 °C; agar diffusion on four indicator bacteria; compared to control SCK6-e
Magnaporthe oryzae = type: cell-based; conditions: peptide 260 μg/mL in PDA, 28 °C, 96 h; buffer control
X. oryzae pv. oryzae [2] = type: cell-based, Xanthomonas oryzae pv. oryzae; conditions: peptide at MIC, 2 h, 28 °C; X. oryzae pv. oryzae exponential phase; flow cytometry; control 0.07%
X. oryzae pv. oryzae [3] = type: cell-based, Xanthomonas oryzae pv. oryzae; conditions: peptide at MIC, 2 h, 28 °C; PBS control
C. fangii [4] = type: cell-based, Clavibacter fangii
X. oryzae pv. oryzae [5] = test system: X. oryzae pv. oryzae; parameters: species or system rice; conditions: control SCK6-e
X. oryzae pv. oryzae [6] = type: cell-based, Xanthomonas oryzae pv. oryzae; conditions: peptide 1 × MIC, OD600
C. michiganensis [7] = type: cell-based, Clavibacter michiganensis subsp
C. fangii [8] = assay: Salt sensitivity assay; type: cell-based, Clavibacter fangii; conditions: peptide 1 × MIC, OD600
R. solanacearum [9] = type: cell-based, Ralstonia solanacearum; conditions: R. solanacearum (G-); extracellular peptide from B. subtilis strain; mean ± SD, three independent experiments; control SCK6-e 0.75 ±0.050
X. oryzae pv. oryzae [10] = type: cell-based, Xanthomonas oryzae pv. oryzae; conditions: peptide at MIC; 28 °C, OD600 at 2–24 h; compared with polymyxin B
C. michiganensis [11] = test system: C. michiganensis
C. fangii [12] = test system: C. fangii
X. oryzae pv. oryzae [13] = type: cell-based, Xanthomonas oryzae pv. oryzae; conditions: peptide at MIC, 10 μM DCFH-DA, 28 °C, after 30 min, upward trend at 120 min; compared to untreated strain
X. oryzae pv. oryzae [14] = type: cell-based, Xanthomonas oryzae pv. oryzae; conditions: X. oryzae pv. oryzae (G-); extracellular peptide from B. subtilis strain; mean ± SD, three independent experiments; control SCK6-e 0.66 ±0.033
R. solanacearum [15] = conditions: R. solanacearum (Gram-negative); purified peptide; LB medium, 28 °C, 24 h
X. oryzae pv. oryzae [16] = conditions: X. oryzae pv. oryzae (Gram-negative); purified peptide; LB medium, 28 °C, 24 h
[17] = test system: Gram-negative and Gram-positive bacteria; conditions: range over C. fangii, R. solanacearum, C. michiganensis, X. oryzae pv oryzae, X. oryzae pv. oryzicola, B. subtilis (168)
X. oryzae pv. oryzicola = X. oryzae pv. oryzicola (Gram-negative); purified peptide; LB medium, 28 °C, 24 h

| Compound | bacteriostatic diameter (C. fangii [4]) [cm] | bacteriostatic diameter (C. michiganensis [7]) [cm] | bacteriostatic diameter (R. solanacearum [9]) [cm] | MIC (C. michiganensis [11]; 24 h) [µM] | MIC (C. fangii [12]; 24 h) [µM] | MIC (B. subtilis (168); 168, 24 h) [µM] | bacteriostatic diameter (X. oryzae pv. oryzae [14]) [cm] | MIC (R. solanacearum [15]) [µM] | MIC (X. oryzae pv. oryzae [16]) [µM] | MIC (range over six bacteria) [17] | MIC (X. oryzae pv. oryzicola) [µM] | also measured |
| --- | --- | --- | --- | --- | --- | --- | --- | --- | --- | --- | --- | --- |
| CC[C@H](C)[C@H](NC(=O)[C@H](CO)NC(=O)[C@H](CCCCN)NC(=O)[C@H](CCCNC(=N)N)NC(=O)[C@@H](NC(=O)[C@H](CCC(=O)O)NC(=O)[C@H](Cc1ccc(O)cc1)NC(=O)[C@H](CS)NC(=O)[C@H](Cc1c[nH]cn1)NC(=O)[C@@H](NC(=O)[C@H](Cc1c[nH]cn1)NC(=O)[C@H](CCCCN)NC(=O)[C@H](CCC(=O)O)NC(=O)[C@H](CO)NC(=O)[C@H](CO)NC(=O)[C@@H](NC(=O)[C@H](CS)NC(=O)[C@H](CC(N)=O)NC(=O)[C@H](Cc1ccc(O)cc1)NC(=O)[C@@H](NC(=O)[C@H](Cc1c[nH]cn1)NC(=O)[C@@H](NC(=O)[C@H](Cc1ccc(O)cc1)NC(=O)[C@@H](NC(=O)[C@H](CC(=O)O)NC(=O)[C@@H](NC(=O)[C@@H](N)CC(C)C)C(C)C)[C@@H](C)CC)[C@@H](C)O)C(C)C)[C@@H](C)O)[C@@H](C)O)[C@@H](C)CC)C(=O)N[C@@H](CO)C(=O)O [OrR214] (H-LVDIYTHVYNCTSSEKHTHCYEIRKSIS-OH) | 1.1 ±0.033 | 1.2 ±0.033 | 1.3 ±0.050 | 10.5 (≈ 34.9 µg/mL) | 10.7 (≈ 35.6 µg/mL) | 8.3 (≈ 27.6 µg/mL) | 1.3 ±0.058 |  |  |  |  | antimicrobial activity after heating (thermal stability) [1]: significant activity; mycelium growth of Magnaporthe oryzae (Magnaporthe oryzae): significantly inhibit the mycelium growth; PI staining rate (PI uptake) (X. oryzae pv. oryzae [2]): ~37.1%; cell morphology by SEM and TEM (X. oryzae pv. oryzae [3]): severe damage to the cell membrane surface; necrotic leaf lesion growth on detached rice leaves (X. oryzae pv. oryzae [5]; X. oryzae pv. oryzae mixed with peptide, leaf clipping, 28 °C, 7 d): decreased necrotic leaf lesion growth; incidence of rice leaves (X. oryzae pv. oryzae [5]; X. oryzae pv. oryzae, 7 d post-inoculation, lesion length): decreased significantly; antimicrobial activity at 150 mM Na+ (X. oryzae pv. oryzae [6]; NaCl 150 mM): slightly affected; antibacterial activity at 50–100 mM Na+ (X. oryzae pv. oryzae [6]; NaCl 50, 100 mM): significant bacteriostatic effect; antimicrobial activity at 150 mM Na+ (C. fangii [8]; NaCl 150 mM): slightly affected; antibacterial activity at 50–100 mM Na+ (C. fangii [8]; NaCl 50, 100 mM): significant bacteriostatic effect; time-kill, bacterial growth after peptide treatment (X. oryzae pv. oryzae [10]): hardly grew after 12 h of treatment; ROS production, DCFH-DA fluorescence intensity (X. oryzae pv. oryzae [13]): significantly increased |
| Polymyxin B [reference compound] |  |  |  |  |  |  |  | 7.5 | 5.0 | 5 to 25 µM and 5.0 to 25.0 µM | 10.0 | MIC (C. michiganensis [11]): 12.5 µM; MIC (C. fangii [12]): 25.0 µM; MIC (B. subtilis (168); B. subtilis (168) (Gram-positive), purified peptide, LB medium, 28 °C, 24 h): 15.0 µM |
| CSCC[C@H](NC(=O)[C@@H](NC(=O)[C@@H](NC(=O)[C@H](CC(N)=O)NC(=O)[C@H](CC(N)=O)NC(=O)[C@H](CC(C)C)NC(=O)[C@H](CCCNC(=N)N)NC(=O)[C@H](CC(C)C)NC(=O)[C@@H](NC(=O)[C@H](CO)NC(=O)[C@H](CO)NC(=O)[C@@H](NC(=O)[C@@H]1CCCN1C(=O)[C@@H](NC(=O)CNC(=O)[C@@H](N)CC(C)C)C(C)C)C(C)C)[C@@H](C)O)[C@@H](C)O)[C@@H](C)O)C(=O)N[C@@H](CC(N)=O)C(=O)N1CCC[C@H]1C(=O)N[C@@H](CS)C(=O)N[C@@H](CC(C)C)C(=O)N1CCC[C@H]1C(=O)N[C@@H](CO)C(=O)O [OrR935] (H-LGVPVSSTLRLNNTTMNPCLPS-OH) |  |  |  | 34.6 (≈ 80.1 µg/mL) | 37.7 (≈ 87.3 µg/mL) | 36.1 (≈ 83.6 µg/mL) |  | 33 (≈ 76.4 µg/mL) | 44.0 (≈ 102 µg/mL) | 31.4 to 44.0 µM | 31.4 (≈ 72.7 µg/mL) |  |
| LSFCSCIRTNLDGFDQKLQWNPHFY [OrR1135, candidate antimicrobial peptide from the O. rufipogon cDNA library, 25 amino acids] | 1.1 ±0.060 | 1.2 ±0.033 | 1.4 ±0.050 |  |  |  | 1.2 ±0.11 |  |  |  |  |  |
